Measurements published in ChEMBL document CHEMBL1201862, “PubChem BioAssay data set” (2004).
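Five compound concentrations were applied to cells in 96-well plates for 48 hours; endpoints were derived by simple linear interpolation of the resulting dose-response curve. GI50 marks 50% less growth.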 Activity calls are given as the source filed them. No stated cut-off is given here; in the data, active = GI50 up to about 1.1 µM and inactive = higher.

Columns and labels:
Experiment in all cases: NCI tumour cell line growth inhibition, 48 h
[1] = tested on: SF-539
[2] = tested on: T47D
[3] = tested on: ACHN
[4] = tested on: Hs-578T
[5] = tested on: TK-10
[6] = tested on: M14
[7] = tested on: LOX IMVI
[8] = tested on: CCRF-CEM
[9] = tested on: NCI/ADR-RES
[10] = tested on: UACC-257
[11] = tested on: U-251
[12] = tested on: OVCAR-4
[13] = tested on: MOLT-4
[14] = tested on: MDA-MB-435
[15] = tested on: MDA-MB-231
[16] = tested on: COLO 205
[17] = tested on: KM12
[18] = tested on: OVCAR-3
[19] = tested on: 786-0
[20] = tested on: PC-3
[21] = tested on: RPMI-8226
[22] = tested on: UACC-62
[23] = tested on: A549
[24] = tested on: HT-29
[25] = tested on: SF-268
[26] = tested on: K562
[27] = tested on: SNB-19
[28] = tested on: SF-295
[29] = tested on: IGROV-1
[30] = tested on: MCF7
[31] = tested on: OVCAR-8
[32] = tested on: BT-549
[33] = tested on: SK-OV-3
[34] = tested on: SK-MEL-28
[35] = tested on: DU-145
[36] = tested on: SR
[37] = tested on: HOP-92
[38] = tested on: A498
[39] = tested on: SN12C
[40] = tested on: HCC 2998
[41] = tested on: CAKI-1
[42] = tested on: SNB-75
[43] = tested on: SK-MEL-2
[44] = tested on: NCI-H460
[45] = tested on: SK-MEL-5
[46] = tested on: HCT-116
[47] = tested on: EKVX
[48] = tested on: HCT-15
[49] = tested on: HOP-62
[50] = tested on: UO-31
[51] = tested on: SW-620
[52] = tested on: MDA-N
[53] = tested on: OVCAR-5
[54] = tested on: RXF 393
[55] = tested on: NCI-H23
[56] = tested on: HL-60
[57] = tested on: Malme-3M

With O=C1/C(=C/c2ccccc2S)N=C(c2ccccc2)N1c1ccc2c(c1)Sc1cc(N3C(=O)/C(=C/c4ccccc4S)N=C3c3ccccc3)ccc1N2 the GI50 [1] was 11.8 µM (inactive), the GI50 [2] was 22.7 µM (inactive) and the GI50 [3] was 18.6 µM (inactive). For the same compound, the GI50 [4] was 25.6 µM (inactive), the GI50 [5] was 17.4 µM (inactive) and the GI50 [6] was 17.9 µM (inactive). The GI50 [7] was 20.3 µM (inactive), the GI50 [8] was 15.2 µM (inactive) and the GI50 [9] was 35.5 µM (inactive). For the same compound, the GI50 [10] was 20.4 µM (inactive), the GI50 [11] was 19.7 µM (inactive) and the GI50 [12] was 32.6 µM (inactive). The GI50 [13] was 19.6 µM (inactive), the GI50 [14] was 21.1 µM (inactive) and the GI50 [15] was 28.4 µM (inactive). For the same compound, the GI50 [16] was 31.4 µM (inactive), the GI50 [17] was 34 µM (inactive) and the GI50 [18] was 18.8 µM (inactive). For the same compound, the GI50 [19] was 22.9 µM (inactive), the GI50 [20] was 21.4 µM (inactive) and the GI50 [21] was 19 µM (inactive). The GI50 [22] was 20.1 µM (inactive), the GI50 [23] was 17.4 µM (inactive) and the GI50 [24] was 34.4 µM (inactive). The GI50 [25] was 19.5 µM (inactive), the GI50 [26] was 22 µM (inactive) and the GI50 [27] was 16.7 µM (inactive). For the same compound, the GI50 [28] was 16.8 µM (inactive), the GI50 [29] was 15.7 µM (inactive) and the GI50 [30] was 21 µM (inactive). The GI50 [31] was 19.4 µM (inactive), the GI50 [32] was 26.7 µM (inactive) and the GI50 [33] was 17.8 µM (inactive). The GI50 [34] was 21.7 µM (inactive), the GI50 [35] was 19.2 µM (inactive) and the GI50 [36] was 15.7 µM (inactive). The GI50 [37] was 14.9 µM (inactive), the GI50 [38] was 19.1 µM (inactive) and the GI50 [39] was 19.2 µM (inactive). For the same compound, the GI50 [40] was 20.5 µM (inactive), the GI50 [41] was 18.7 µM (inactive) and the GI50 [42] was 15.8 µM (inactive). The GI50 [43] was 23.8 µM (inactive), the GI50 [44] was 23.7 µM (inactive) and the GI50 [45] was 17 µM (inactive). The GI50 [46] was 21.3 µM (inactive), the GI50 [47] was 20.7 µM (inactive) and the GI50 [48] was 31.6 µM. For the same compound, the GI50 [49] was 25.6 µM (inactive), the GI50 [50] was 15.8 µM (inactive) and the GI50 [51] was 19.8 µM (inactive). The GI50 [52] was 23.8 µM (inactive) and the GI50 [53] was 18.7 µM (inactive).
With O=c1c(Cc2c(O)ccc3ccccc23)nnc2sc(-c3nn4c(=O)c(Cc5c(O)ccc6ccccc56)nnc4s3)nn12 the GI50 [2] was 37.2 µM (inactive), the GI50 [3] was 57.4 µM (inactive) and the GI50 [4] was 10.8 µM (inactive). For the same compound, the GI50 [5] was 37.3 µM (inactive), the GI50 [6] was > 100 µM (inactive) and the GI50 [7] was > 100 µM (inactive). For the same compound, the GI50 [8] was 30.5 µM (inactive), the GI50 [9] was > 100 µM (inactive) and the GI50 [10] was > 100 µM (inactive). The GI50 [11] was 26.2 µM (inactive), the GI50 [12] was > 100 µM (inactive) and the GI50 [13] was > 10 µM (inactive). For the same compound, the GI50 [14] was > 100 µM (inactive), the GI50 [54] was 22.9 µM (inactive) and the GI50 [15] was 32.6 µM (inactive). The GI50 [55] was 54.7 µM (inactive), the GI50 [18] was > 100 µM (inactive) and the GI50 [19] was 14.8 µM (inactive). The GI50 [56] was 30.8 µM (inactive), the GI50 [20] was > 100 µM (inactive) and the GI50 [21] was > 100 µM (inactive). For the same compound, the GI50 [22] was 29 µM (inactive), the GI50 [23] was > 100 µM (inactive) and the GI50 [24] was > 100 µM (inactive). For the same compound, the GI50 [25] was 8.63 µM (inactive), the GI50 [26] was > 100 µM (inactive) and the GI50 [27] was 38.5 µM (inactive). For the same compound, the GI50 [29] was > 100 µM (inactive), the GI50 [30] was 18 µM (inactive) and the GI50 [31] was > 100 µM (inactive). The GI50 [32] was 25.4 µM (inactive), the GI50 [35] was > 100 µM (inactive) and the GI50 [36] was > 100 µM (inactive). The GI50 [37] was 38.1 µM (inactive), the GI50 [38] was 42.2 µM (inactive) and the GI50 [39] was > 100 µM (inactive). For the same compound, the GI50 [40] was > 100 µM (inactive), the GI50 [41] was > 100 µM (inactive) and the GI50 [57] was > 100 µM (inactive). For the same compound, the GI50 [42] was 9.2 µM (inactive), the GI50 [43] was 13.4 µM (inactive) and the GI50 [46] was > 100 µM (inactive). The GI50 [47] was 29.2 µM (inactive), the GI50 [48] was over 100 µM and the GI50 [49] was 28.5 µM (inactive). For the same compound, the GI50 [50] was > 100 µM (inactive), the GI50 [51] was > 100 µM (inactive) and the GI50 [52] was > 100 µM (inactive). For the same compound, the GI50 [53] was > 100 µM (inactive).
